# Measured values taken from patent US9302999B2, “Substituted triazoles as herbicides” (E. I. DU PONT DE NEMOURS AND COMPANY, priority 2012, dated 2016).
# Read-outs that look alike come from different tables or passages of the source.
# How the values were obtained:
# Format in all cases: in vivo
# [1] = test system: velvetleaf (Abutilon theophrasti); experiment: Test A pre-/postemergence: velvetleaf; settings: Abutilon theophrasti, 240 h; for pest or weed control at 125 g/ha: 125 g ai/ha; for pest or weed control at 500 g/ha: 500 g ai/ha
# Method in brief: (§1)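 Injury is scored visually on a scale where 0 means no effect and 100 complete control, comparing treated with untreated plants after approximately ten greenhouse days. Both preemergence and postemergence applications are made at the same time.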
# [2] = test system: crabgrass, large (large crabgrass, Digitaria sanguinalis); experiment: Test A pre-/postemergence: crabgrass, large; settings: Digitaria sanguinalis, 240 h; for pest or weed control at 125 g/ha: 125 g ai/ha; for pest or weed control at 500 g/ha: 500 g ai/ha
# Method in brief: as §1
# [3] = test system: johnsongrass (Sorghum halepense); experiment: Test C pre-/postemergence: johnsongrass
# Method in brief: (§2)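 Preemergence on seeds in loam/sand, postemergence on 2–18 cm (1–4-leaf) plants in peat-based medium; compounds in non-phytotoxic solvent with surfactant. After 13–15 days in greenhouse, visual rating versus controls, 0 (no effect) to 100 (complete control).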
# [4] = test system: galium (catchweed bedstraw, Galium aparine); experiment: Test C pre-/postemergence: galium
# Method in brief: as §2
# [5] = test system: bromegrass, downy (downy bromegrass, Bromus tectorum); experiment: Test C pre-/postemergence: bromegrass, downy
# Method in brief: as §2
# [6] = test system: morningglory (Ipomoea coccinea); experiment: Test C pre-/postemergence: morningglory
# Method in brief: as §2
# [7] = test system: morningglory (Ipomoea spp.); experiment: Test A pre-/postemergence: morningglory; settings: Ipomoea, 240 h; for pest or weed control at 125 g/ha: 125 g ai/ha; for pest or weed control at 500 g/ha: 500 g ai/ha
# Method in brief: as §1
# [8] = test system: foxtail, giant (giant foxtail, Setaria faberii); experiment: Test A pre-/postemergence: foxtail, giant; settings: Setaria faberi, 240 h; for pest or weed control at 125 g/ha: 125 g ai/ha; for pest or weed control at 500 g/ha: 500 g ai/ha
# Method in brief: as §1
# [9] = test system: nightshade (eastern black nightshade, Solanum ptycanthum); experiment: Test C pre-/postemergence: nightshade; settings: Preemergence
# Method in brief: as §2
# [10] = test system: blackgrass (Alopecurus myosuroides); experiment: Test C pre-/postemergence: blackgrass
# Method in brief: as §2
# [11] = Postemergence, 16 g ai/ha, scale 0 to 100, 0 no effect, 100 complete control
# [12] = Postemergence, 31 g ai/ha, scale 0 to 100 (0 no effect, 100 complete control)
# [13] = Postemergence, 62 g ai/ha, scale 0 to 100 (0 no effect, 100 complete control)
# [14] = Postemergence, 125 g ai/ha, scale 0 to 100, 0 no effect, 100 complete control
# [15] = Preemergence, 16 g ai/ha, scale 0 (no effect) to 100 (complete control)
# [16] = Preemergence, 31 g ai/ha, scale of 0 to 100, 0 is no effect, 100 is complete control
# [17] = Preemergence, 62 g ai/ha, scale of 0 to 100, 0 is no effect, 100 is complete control
# [18] = Preemergence, 125 g ai/ha, scale 0 to 100, 0 no effect, 100 complete control
# [19] = Preemergence, 62 g ai/ha, scale 0 to 100, 0 no effect, 100 complete control
structure (smiles),measurement,setting,value
"COc1nn(-c2ccc(C(F)(F)F)cc2)nc1Cc1ccnc(C(F)(F)F)c1 [Compound 15, 4-[[5-methoxy-2-[4-(trifluoromethyl)phenyl]-2H-1,2,3-triazol-4-yl]methyl]-2-(trifluoromethyl)pyridine]",pest or weed control at 125 g/ha,"[1]; post-emergence, Postemergence, 0 to 100 scale, 0 is no effect, 100 is complete control, read-out: Velvetleaf plant response rating",100%
same,pest or weed control at 500 g/ha,"[1]; post-emergence, Postemergence, visual rating on 0 to 100 scale (0 no effect, 100 complete control), approximately ten days, read-out: Velvetleaf plant response rating",100%
same,pest or weed control at 125 g/ha,"[1]; pre-emergence, Preemergence, 0 to 100 scale (0 no effect, 100 complete control), read-out: Plant response rating, Velvetleaf",70%
same,pest or weed control at 500 g/ha,"[1]; pre-emergence, Preemergence, 0 to 100 scale, 0 is no effect, 100 is complete control, read-out: Plant response rating, Velvetleaf",80%
same,pest or weed control at 125 g/ha,"[2]; post-emergence, Postemergence, 0 to 100 scale, 0 is no effect, 100 is complete control, read-out: Crabgrass, Large plant response rating",90%
same,pest or weed control at 500 g/ha,"[2]; post-emergence, Postemergence, visual rating on 0 to 100 scale (0 no effect, 100 complete control), approximately ten days, read-out: Crabgrass, Large plant response rating",90%
same,pest or weed control at 125 g/ha,"[2]; pre-emergence, Preemergence, 0 to 100 scale (0 no effect, 100 complete control), read-out: Plant response rating, Crabgrass, Large",100%
same,pest or weed control at 500 g/ha,"[2]; pre-emergence, Preemergence, 0 to 100 scale, 0 is no effect, 100 is complete control, read-out: Plant response rating, Crabgrass, Large",100%
same,"Plant response rating, Johnsongrass",[3]; [11],0
same,"Plant response rating, Johnsongrass",[3]; [12],45
same,"Plant response rating, Johnsongrass",[3]; [13],60
same,"Plant response rating, Johnsongrass",[3]; [14],80
same,"Plant response rating, Johnsongrass",[3]; [15],15
same,"Plant response rating, Johnsongrass",[3]; [16],55
same,"Plant response rating, Johnsongrass",[3]; [17],85
same,"Plant response rating, Johnsongrass",[3]; [18],90
same,"Plant response rating, Galium",[4]; [11],50
same,"Plant response rating, Galium",[4]; [12],55
same,"Plant response rating, Galium",[4]; [13],55
same,"Plant response rating, Galium",[4]; [14],80
same,"Plant response rating, Galium",[4]; [15],50
same,"Plant response rating, Galium",[4]; [16],75
same,"Plant response rating, Galium",[4]; [17],95
same,"Plant response rating, Galium",[4]; [18],98
same,"Plant response rating, Bromegrass, Downy",[5]; [11],10
same,"Plant response rating, Bromegrass, Downy",[5]; [12],25
same,"Plant response rating, Bromegrass, Downy",[5]; [13],35
same,"Plant response rating, Bromegrass, Downy",[5]; [14],40
same,"Plant response rating, Bromegrass, Downy",[5]; [15],15
same,"Plant response rating, Bromegrass, Downy",[5]; [16],25
same,"Plant response rating, Bromegrass, Downy",[5]; [19],30
same,"Plant response rating, Bromegrass, Downy",[5]; [18],80
same,"Plant response rating, Morningglory",[6]; [11],45
same,"Plant response rating, Morningglory",[6]; [12],75
same,"Plant response rating, Morningglory",[6]; [13],75
same,"Plant response rating, Morningglory",[6]; [14],90
same,"Plant response rating, Morningglory",[6]; [15],5
same,"Plant response rating, Morningglory",[6]; [16],5
same,"Plant response rating, Morningglory",[6]; [17],15
same,"Plant response rating, Morningglory",[6]; [18],45
same,pest or weed control at 125 g/ha,"[7]; post-emergence, Postemergence, 0 to 100 scale, 0 is no effect, 100 is complete control, read-out: Morningglory plant response rating",100%
same,pest or weed control at 500 g/ha,"[7]; post-emergence, Postemergence, visual rating on 0 to 100 scale (0 no effect, 100 complete control), approximately ten days, read-out: Morningglory plant response rating",100%
same,pest or weed control at 125 g/ha,"[7]; pre-emergence, Preemergence, 0 to 100 scale (0 no effect, 100 complete control), read-out: Plant response rating, Morningglory",60%
same,pest or weed control at 500 g/ha,"[7]; pre-emergence, Preemergence, 0 to 100 scale, 0 is no effect, 100 is complete control, read-out: Plant response rating, Morningglory",80%
same,pest or weed control at 125 g/ha,"[8]; post-emergence, Postemergence, 0 to 100 scale, 0 is no effect, 100 is complete control, read-out: Foxtail, Giant plant response rating",90%
same,pest or weed control at 500 g/ha,"[8]; post-emergence, Postemergence, visual rating on 0 to 100 scale (0 no effect, 100 complete control), approximately ten days, read-out: Foxtail, Giant plant response rating",90%
same,pest or weed control at 125 g/ha,"[8]; pre-emergence, Preemergence, 0 to 100 scale (0 no effect, 100 complete control), read-out: Plant response rating, Foxtail, Giant",100%
same,pest or weed control at 500 g/ha,"[8]; pre-emergence, Preemergence, 0 to 100 scale, 0 is no effect, 100 is complete control, read-out: Plant response rating, Foxtail, Giant",100%
same,"Plant response rating, Nightshade","[9]; 16 g ai/ha, scale 0 (no effect) to 100 (complete control)",10
same,"Plant response rating, Nightshade","[9]; 31 g ai/ha, scale of 0 to 100, 0 is no effect, 100 is complete control",25
same,"Plant response rating, Nightshade","[9]; 62 g ai/ha, scale of 0 to 100, 0 is no effect, 100 is complete control",85
same,"Plant response rating, Nightshade","[9]; 125 g ai/ha, scale 0 to 100, 0 no effect, 100 complete control",90
same,"Plant response rating, Blackgrass",[10]; [11],20
same,"Plant response rating, Blackgrass",[10]; [12],30
same,"Plant response rating, Blackgrass",[10]; [13],60
same,"Plant response rating, Blackgrass",[10]; [14],80
same,"Plant response rating, Blackgrass",[10]; [15],15
same,"Plant response rating, Blackgrass",[10]; [16],50
same,"Plant response rating, Blackgrass",[10]; [19],85
same,"Plant response rating, Blackgrass",[10]; [18],95
